Test results reported in patent US20240287138A1, “CYCLIC PEPTIDES FOR INHIBITING TNF RECEPTOR 1 ACTIVITY” (Merck Sharp & Dohme LLC, priority 2023, published 2024).
Numbered stars: 1 amine (or outer) side, 2 acyl side, 3 side chain; on linkers, the order of the positions; unused ones are H or OH. Bridge positions count the residues as written; N and C are the ends. Square brackets hold non-standard residues; d marks the D form. Peptide text beside a SMILES is read from it. * marks the point of attachment. Trp(7-aza,1-CH2COOH) = N[C@@H](Cc1cn(CC(=O)O)c2ncccc12)C(=O)O; Trp(βS-Me,7-OMe) = COc1cccc2c([C@H](C)[C@H](N)C(=O)O)c[nH]c12; X56 = Cc1cccc2c([C@H](C)[C@H](N[*:1])C(=O)[*:2])c[nH]c12; Trp(1-CH2COOH) = N[C@@H](Cc1cn(CC(=O)O)c2ccccc12)C(=O)O; Trp(7-CN) = N#Cc1cccc2c(C[C@H](N)C(=O)O)c[nH]c12; Trp(7-Cl) = N[C@@H](Cc1c[nH]c2c(Cl)cccc12)C(=O)O; X20 = O=C1NCc2ccc(C[C@H](N[*:1])C(=O)[*:2])cc21; Phe(4-CONH2) = NC(=O)c1ccc(C[C@H](N)C(=O)O)cc1; Phe(4-COOH) = N[C@@H](Cc1ccc(C(=O)O)cc1)C(=O)O; Trp(7-aza) = N[C@@H](Cc1c[nH]c2ncccc12)C(=O)O; X47 = NC[C@H]1C[C@H](C(=O)[*:2])N([*:1])C1; X46 = Nc1ncc(C[C@H](N[*:1])C(=O)[*:2])cn1; Pip(5R-OH) = O=C(O)[C@@H]1CC[C@@H](O)CN1; X1 = O=C([C@@H]1CC[C@H](N[*:1])C1)[*:2]; Pip(4-aza) = O=C(O)[C@@H]1CNCCN1; 4Pal = N[C@@H](Cc1ccncc1)C(=O)O; NMeE = CN[C@@H](CCC(=O)O)C(=O)O; dHyp = O=C(O)[C@H]1C[C@H](O)CN1; Pip = O=C(O)[C@@H]1CCCCN1; αMeS = C[C@](N)(CO)C(=O)O; Carboxymethyl = O=C(O)C*; Nle = CCCC[C@H](N)C(=O)O; CF3 = FC(F)(F)*; Sar = CNCC(=O)O

Tests used:
[1] = target: T1, TNFα-induced NF-κB signal transduction pathway (TNFR1 signaling) in THP-1 cells (Homo sapiens, UniProt P19438); assay: THP-1 Lucia NF-κB reporter cell assay, inhibition of TNFα-induced NF-κB signaling; type: cell-based; details: THP-1 NF-κB Lucia reporter cells, 10 ng/mL TNFα, 16-18 h, secreted luciferase; read-out: THP-1 IC50
T1 sequence (P19438 30-455): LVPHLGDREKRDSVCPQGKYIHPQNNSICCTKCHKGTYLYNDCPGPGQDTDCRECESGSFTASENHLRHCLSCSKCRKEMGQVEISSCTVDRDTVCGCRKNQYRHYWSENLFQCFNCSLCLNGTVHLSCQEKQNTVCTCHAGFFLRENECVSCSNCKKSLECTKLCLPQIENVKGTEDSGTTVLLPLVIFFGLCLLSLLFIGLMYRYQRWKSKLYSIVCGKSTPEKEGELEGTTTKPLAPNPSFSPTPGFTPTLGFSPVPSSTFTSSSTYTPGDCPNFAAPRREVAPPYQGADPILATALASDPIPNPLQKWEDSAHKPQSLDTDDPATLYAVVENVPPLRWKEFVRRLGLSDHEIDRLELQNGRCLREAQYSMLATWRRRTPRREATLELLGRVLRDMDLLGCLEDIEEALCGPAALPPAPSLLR
Procedure, shortened: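 Read-out: secreted Lucia luciferase luminescence (QUANTI-Luc) from supernatant after 16-18 h, 37 °C, 10 ng/mL rhTNFα. Peptide pretreatment 1 h at 37 °C; 20,000 cells/well, selection antibiotics omitted. IC50 via 4-parameter logistic model against min/max controls.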

[2] = target: T2, human soluble TNFR1 (sTNFR1) (Homo sapiens, UniProt P19438); assay: Human sTNFR1-peptide displacement assay (LanthaScreen Eu TR-FRET binding assay)
T2 construct: made in house; host or cells: Sf21 (baculovirus)
T2 sequence (P19438 with tags, fused parts or gaps): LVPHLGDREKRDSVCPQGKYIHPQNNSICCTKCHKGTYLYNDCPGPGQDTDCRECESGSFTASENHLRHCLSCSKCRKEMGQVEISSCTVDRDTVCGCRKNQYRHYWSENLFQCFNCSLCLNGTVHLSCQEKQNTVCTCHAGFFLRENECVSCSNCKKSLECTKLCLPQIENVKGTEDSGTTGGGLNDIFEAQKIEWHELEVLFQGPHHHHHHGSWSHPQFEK
Description: A. Procedure for Human sTNFR1-Peptide Displacement Assay
The affinity was determined using LanthaScreen Eu-based time-resolved fluorescence resonance energy transfer (TR-FRET)-based binding assay.
A TR-FRET assay measuring the displacement of biotinylated peptide SEQ ID NO. 1 from human soluble TNFR1 (sTNFR1) in a pre-formed complex by a macrocyclic peptide yields the affinity (Kd^app) of the cyclic peptide for sTNFR1. The reagents for the assay include: the C′-terminally 6His-tagged sTNFR1 (residues 1-211) protein purified from a Sf21 baculovirus expression system, the biotin-tagged B0372 peptide described in section “Preparation of Final Compounds”, part E, the LanthaScreen™ anti-His Tag Europium donor (Life Technologies Corporation (San Diego, CA), cat. #PV5597), and a streptavidin-conjugate Alexa Fluor™ 647 acceptor (Invitrogen (Waltham, MA), cat. #S32357). Time-resolved TR-FRET is achieved when sTNFR1 is bound to biotinylated peptide SEQ ID NO. 1 through coupling of the donor and acceptor FRET pair.
100 nM biotinylated peptide SEQ ID NO. […] 100 nM biotinylated peptide SEQ ID NO. 1 was chosen as it reflects the ˜Kd for this complex. After 30 min at ambient temperature, each test peptide (2 mM stock in DMSO) is titrated in a 20 point, ˜3-fold discrete dose-response using an acoustic-dispense liquid handler. Specifically, 80 nL of peptide/DMSO is transferred into a ProxiPlate-384 Plus 384-well assay plate (PerkinElmer, cat. #6008289). To this plate, 8 μL of the previously formed sTNFR 1-biotinylated peptide SEQ ID NO. 1 complex is added and allowed to reach binding equilibrium with the test peptide at ambient temperature for 90 min.
The TR-FRET signal is measured with the following EnVision® settings: excitation laser at 337 nm; emission1=615 nm, emission2=665 nm, LANCE/DELFIA dichroic mirror, delay time=[…]. The signal of each well is determined as the ratio of the emission at 665 nm to that at 615 nm. Percent displacement is determined by normalization to control wells containing DMSO (0%) or a saturating concentration of a displaceable peptide (100%). The %-effect as a function of peptide concentration is fit to a five-parameter logistic fit based on the Morrison equation to account for tight binding kinetics.

SMILES	IC50 [1] [nM]	Kd [2] [nM]	IC50 [2] [nM]
CCCC[C@@H]1NC(=O)[C@@H]2CC[C@@H](C2)NC(=O)[C@H]([C@@H](C)c2c[nH]c3c(OC)cccc23)NC(=O)CN(C)C(=O)[C@H](Cc2ccc(C(=O)O)cc2)NC(=O)[C@H](Cc2ccc(C(N)=O)cc2)NC(=O)[C@](C)(CO)NC(=O)[C@H](Cc2c[nH]c3c(Cl)cccc23)NC(=O)[C@H](Cc2ccc(C(=O)O)cc2)NC(=O)[C@H](CC(N)=O)NC(=O)[C@H]2C[C@H](CN)CN2C(=O)[C@H](Cc2c[nH]c3ccccc23)NC(=O)[C@@H]2CC[C@@H](O)CN2C(=O)[C@H](Cc2ccncc2)NC1=O [SEQ ID NO. 15] (cyclo([4Pal][Pip(5R-OH)]W[X47]N[Phe(4-COOH)][Trp(7-Cl)][αMeS][Phe(4-CONH2)][Phe(4-COOH)][Sar][Trp(βS-Me,7-OMe)][X1][Nle]))	0.5	0.1	
CCCC[C@@H]1NC(=O)CSC[C@@H](C(N)=O)NC(=O)[C@H]([C@@H](C)c2c[nH]c3c(OC)cccc23)NC(=O)CN(C)C(=O)[C@H](Cc2ccc(OC(F)(F)F)cc2)NC(=O)[C@H](Cc2ccc(C(=O)O)cc2)NC(=O)[C@](C)(CO)NC(=O)[C@H](Cc2c[nH]c3c(Cl)cccc23)NC(=O)[C@H](Cc2ccncc2)NC(=O)[C@H](CC(N)=O)NC(=O)[C@H](CCC(=O)O)N(C)C(=O)[C@H](Cc2c[nH]c3ncccc23)NC(=O)[C@@H]2CNCCN2C(=O)[C@H](Cc2ccncc2)NC1=O [SEQ ID NO. 158] ({CH2CO}-[Nle][4Pal][Pip(4-aza)][Trp(7-aza)][NMeE]N[4Pal][Trp(7-Cl)][αMeS][Phe(4-COOH)]Y(CF3)[Sar][Trp(βS-Me,7-OMe)]C-NH2; thioether N-14)	5.3		1.79
CCCC[C@@H]1NC(=O)[C@@H]2CC[C@@H](C2)NC(=O)[C@H]([C@@H](C)c2c[nH]c3c(OC)cccc23)NC(=O)CN(C)C(=O)[C@H](Cc2ccc(OCC(=O)O)cc2)NC(=O)[C@H](Cc2cnc(N)nc2)NC(=O)[C@](C)(CO)NC(=O)[C@H](Cc2c[nH]c3c(C#N)cccc23)NC(=O)[C@H](Cc2ccc(OCC(=O)O)cc2)NC(=O)[C@H](CC(N)=O)NC(=O)[C@H]2C[C@H](O)CN2C(=O)[C@H](Cc2cn(CC(=O)O)c3ccccc23)NC(=O)[C@@H]2CC[C@@H](O)CN2C(=O)[C@H](Cc2ccncc2)NC1=O [SEQ ID NO. 6] (cyclo([4Pal][Pip(5R-OH)][Trp(1-CH2COOH)][dHyp]NY(Carboxymethyl)[Trp(7-CN)][αMeS][X46]Y(Carboxymethyl)[Sar][Trp(βS-Me,7-OMe)][X1][Nle]))	0.8	0.08	
CCCC[C@@H]1NC(=O)CSC[C@@H](C(N)=O)NC(=O)[C@H]([C@@H](C)c2c[nH]c3c(C)cccc23)NC(=O)CN(C)C(=O)[C@H](Cc2ccc(O)cc2)NC(=O)[C@H](Cc2ccc(C(=O)O)cc2)NC(=O)[C@](C)(CO)NC(=O)[C@H](Cc2c[nH]c3c(Cl)cccc23)NC(=O)[C@H](Cc2ccncc2)NC(=O)[C@H](CC(N)=O)NC(=O)[C@H](CCC(=O)O)N(C)C(=O)[C@H](Cc2c[nH]c3ccccc23)NC(=O)[C@@H]2CCCCN2C(=O)[C@H](Cc2ccncc2)NC1=O [SEQ ID NO. 208] ({CH2CO}-[Nle][4Pal][Pip]W[NMeE]N[4Pal][Trp(7-Cl)][αMeS][Phe(4-COOH)]Y[Sar][X56]C-NH2; thioether N-14)	4		1.31
CCCC[C@@H]1NC(=O)[C@@H]2CC[C@@H](C2)NC(=O)[C@H]([C@@H](C)c2c[nH]c3c(OC)cccc23)NC(=O)CN(C)C(=O)[C@H](Cc2ccc(C(N)=O)cc2)NC(=O)[C@H](Cc2ccc(C(N)=O)cc2)NC(=O)[C@](C)(CO)NC(=O)[C@H](Cc2c[nH]c3c(C#N)cccc23)NC(=O)[C@H](Cc2ccc3c(c2)C(=O)NC3)NC(=O)[C@H](CC(N)=O)NC(=O)[C@H]2C[C@H](OCC(=O)O)CN2C(=O)[C@H](Cc2cn(CC(=O)O)c3ncccc23)NC(=O)[C@@H]2CC[C@@H](O)CN2C(=O)[C@H](Cc2ccncc2)NC1=O [SEQ ID NO. 156] (cyclo([4Pal][Pip(5R-OH)][Trp(7-aza,1-CH2COOH)][dHyp](Carboxymethyl)N[X20][Trp(7-CN)][αMeS][Phe(4-CONH2)][Phe(4-CONH2)][Sar][Trp(βS-Me,7-OMe)][X1][Nle]))	0.8	0.12	
